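The compound was tested at five concentrations on cells cultured in 96-well plates, with a 48-hour exposure period. GI50: concentration for 50% inhibition of growth. The concentration for full growth arrest is given as TGI.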
How the values were obtained:
Assay in all cases: growth of human tumour cells (NCI), 48 h
UACC-62 melanoma = tested on: UACC-62 melanoma
786-0 renal = tested on: 786-0 renal
HOP-62 NSCLC = tested on: HOP-62 NSCLC
SK-MEL-5 melanoma = tested on: SK-MEL-5 melanoma
LOX IMVI melanoma = tested on: LOX IMVI melanoma
EKVX NSCLC = tested on: EKVX NSCLC
NCI-H226 lung = tested on: NCI-H226 lung
MCF7 breast = tested on: MCF7 breast
SNB-75 CNS = tested on: SNB-75 CNS
NCI-H522 lung = tested on: NCI-H522 lung

Row | Structure (SMILES) | GI50 (UACC-62 melanoma) [µM] | TGI (UACC-62 melanoma) [µM] | GI50 (786-0 renal) [µM] | TGI (786-0 renal) [µM] | GI50 (HOP-62 NSCLC) [µM] | TGI (HOP-62 NSCLC) [µM] | GI50 (SK-MEL-5 melanoma) [µM] | TGI (SK-MEL-5 melanoma) [µM] | GI50 (LOX IMVI melanoma) [µM] | TGI (LOX IMVI melanoma) [µM] | GI50 (EKVX NSCLC) [µM] | TGI (EKVX NSCLC) [µM] | GI50 (NCI-H226 lung) [µM] | TGI (NCI-H226 lung) [µM] | GI50 (MCF7 breast) [µM] | TGI (MCF7 breast) [µM] | GI50 (SNB-75 CNS) [µM] | TGI (SNB-75 CNS) [µM] | GI50 (NCI-H522 lung) [µM] | TGI (NCI-H522 lung) [µM]
1 | COc1ccc2c(c1)C(=O)c1c-2c(Nc2ccccc2OC)nc2ccccc12 | > 100 | > 100 | > 100 | > 100 | > 100 | > 100 | > 100 | > 100 | > 100 | > 100 | > 100 | > 100 | > 100 | > 100 | > 100 | > 100 | > 100 | > 100 | > 100 | > 100
2 | CC(=O)O[C@H]1C(=O)[C@@]2(C)C([C@H](OC(=O)c3ccccc3)[C@]3(O)C[C@H](OC(=O)[C@H](O)[C@@H](NC(=O)c4ccccc4)c4ccccc4)C(C)=C1C3(C)C)[C@]1(OC(C)=O)CO[C@@H]1C[C@@H]2O (stereo not given in full) | 0.0207 | > 50 | 0.0465 | > 50 | – | > 50 | 0.00785 | > 50 | 0.00513 | > 50 | – | – | 0.0189 | > 50 | < 0.005 | > 50 | < 0.005 | 0.0186 | – | 0.0146
3 | O=C1CC(c2ccccc2)Oc2ccccc21 (stereo not given) | – | > 100 | – | > 100 | – | > 100 | – | 65.8 | – | 84.3 | – | > 100 | – | > 100 | – | > 100 | – | > 100 | – | –
4 | O=C(Nc1cccc(-n2cc(-c3ccncc3)c(-c3cc(O)cc(Cl)c3)n2)c1)c1ccc(N2CCOCC2)c(C(F)(F)F)c1 | 1.72 | 9.38 | 2.24 | 10.1 | 3.59 | 58.2 | 2.33 | 8.49 | 1.03 | 4.61 | – | – | 28.5 | > 100 | 4.16 | > 100 | 0.722 | > 100 | 0.934 | 12.1
5 | O=C1NC(=N[C@@H](CO)c2ccccc2)S/C1=C\c1ccc2ncccc2c1 | 10.4 | > 25 | > 21.9 | > 25 | 12.7 | > 25 | 9.14 | > 25 | 6.15 | > 18.3 | – | – | 11.7 | > 25 | 8.38 | > 25 | 3.64 | > 25 | 5.93 | > 20
6 | Nc1ncc(Cc2ccc3c(c2)OCO3)c(N)n1 | – | > 100 | – | > 100 | – | > 100 | – | > 100 | – | > 100 | – | > 100 | – | > 100 | – | > 100 | – | – | – | –
7 | CCn1cc(C(=O)O)c(=O)c2cc(F)c(N3CCN(S(=O)(=O)c4cccc5ccccc45)CC3)cc21 | 2.25 | 7.73 | 4.5 | 20.9 | 4.6 | 39.2 | 2.24 | 5.17 | – | – | – | – | 3.71 | > 100 | 2.72 | 9.04 | 1.89 | 8.49 | 2.78 | 8.04
8 | CC1(C)OC[C@@H]([C@@]2(CO[Si](c3ccccc3)(c3ccccc3)C(C)(C)C)CC=CC(=O)O2)O1 | 5.79 | 84.5 | 8.96 | 32.8 | 31.5 | 60.9 | 4.65 | 19.4 | 3.93 | 21 | 12.1 | 37.8 | 5.54 | 24.1 | 4.83 | > 100 | – | – | 5.02 | > 100
9 | CCN(C)c1nc(N(C)CC)c2nc(N(C)CC)nc(N(C)CC)c2n1 | – | > 100 | – | > 100 | – | > 100 | – | > 100 | – | > 100 | – | > 100 | – | – | – | > 100 | – | > 100 | – | > 100
10 | COCC([C@@H](O)C(O)C(=O)NCC[C@@H](C)c1nc(/C=C/CC2OC3(C[C@H](O)C2C)OC(C(C[C@H](O)C(C)[C@H](O)C(C)/C=C(C)/C(C)=C/C=C/C(C)=C/C#N)OC)[C@@H](OP(=O)(O)O)C3(C)C)co1)N(C)C (stereo not given in full) | – | 0.000341 | – | 0.000314 | – | – | – | – | – | 0.000561 | – | 0.000326 | – | 0.000282 | – | 0.000347 | – | 0.000327 | – | 0.000308
11 | COC(=O)OC1C(O[C@H]2C[C@H]3[C@@H]4CC=C5C[C@@H](O)CC[C@]5(C)[C@H]4CC[C@]3(C)[C@H]2[C@H](C)C(=O)CCC(C)C)OCC(O)C1OC1OCC(O)C(O)C1OC(=O)c1ccc(OC)cc1 (stereo not given in full) | 0.00621 | 0.0158 | < 0.00275 | 0.503 | 0.0102 | 0.673 | 0.014 | 0.279 | – | – | 0.0196 | 2.55 | – | – | 0.0108 | 0.545 | < 0.00275 | 3.77 | 0.0146 | 0.183
12 | N#CC1c2ccccc2C=CN1C(=O)CCCl (stereo not given) | 14.9 | 29.7 | 14 | 28 | 19.8 | 40.6 | 16.6 | 30.6 | 3.94 | 13.4 | – | – | 17.6 | 54.9 | 2.6 | 12.5 | 10.6 | 25.3 | 1.52 | 2.92
13 | FC(F)(F)Oc1cccc(-c2cc(NCCCCCCNc3cc(-c4cccc(OC(F)(F)F)c4)nc4ccc(N5CCCC5)cc34)c3cc(N4CCCC4)ccc3n2)c1 | 1.77 | 3.16 | 1.8 | 3.49 | 2.04 | 4.44 | 1.77 | 3.22 | 1.85 | 3.54 | – | – | 1.86 | 3.69 | 1.73 | 3.49 | 1.66 | 3.16 | 2.05 | 4.76
14 | CC1(C)N=C(N)N=C(N)N1c1ccc(CCC(=O)Nc2ccc(S(=O)(=O)F)cc2)cc1 | 0.388 | > 100 | 0.529 | > 100 | 8.62 | > 100 | 0.774 | 57 | 1.66 | > 100 | – | – | 7.35 | > 100 | 1.8 | > 100 | 2.42 | > 100 | 1.26 | > 100
15 | COC(=O)CCC(NC(=S)N/N=C/c1cccs1)C(=O)OC (stereo not given) | – | > 100 | – | > 100 | – | > 100 | – | > 100 | – | > 100 | – | > 100 | – | > 100 | – | – | – | > 100 | – | > 100
16 | COc1cc2oc(-c3ccc(O)cc3)cc(=O)c2c(O)c1C1OC(CO)C(O)C(O)C1O (stereo not given) | – | > 100 | – | > 100 | – | > 100 | – | > 100 | – | > 100 | – | > 100 | – | > 100 | – | – | – | > 100 | – | > 100
17 | COc1cc(CNc2nc3cc(N)cc(N)c3nc2-c2ccccc2)cc(OC)c1 | 5.31 | 30.7 | 12.7 | 44.2 | 13.5 | 31.3 | 13 | 41.7 | 4.51 | 81.7 | 2.8 | 8.91 | – | – | 8.34 | > 100 | – | – | 2.88 | 23
18 | COc1nc2c(c(O)c(C)c(=O)n2OC2OCC(OC(C)=O)C(OC(C)=O)C2OC(C)=O)c(=O)n1C (stereo not given) | – | > 100 | – | > 100 | – | > 100 | – | > 100 | – | > 100 | – | > 100 | – | > 100 | – | – | – | > 100 | – | > 100
19 | O=c1cc(O)cc2n1CCC2 | – | > 100 | – | > 100 | – | > 100 | – | > 100 | – | > 100 | – | > 100 | – | > 100 | – | – | – | > 100 | – | > 100
20 | N#C/C(=C\c1cc(OCc2ccccc2)c(OCc2ccccc2)cn1)C(N)=O | – | > 100 | – | > 100 | – | > 100 | – | > 100 | – | > 100 | – | > 100 | – | > 100 | – | – | – | > 100 | – | 41.2
21 | CCN(CC)Cc1cc(Nc2nc(NC3CCC(N(C)C)CC3)c3ccccc3n2)ccc1OC (stereo not given) | 13.2 | 27.2 | 6.67 | 19.3 | 8.63 | 20.9 | 1.54 | 2.87 | – | – | 7.75 | 25.5 | 3.94 | 16.8 | 3.83 | 14.6 | 2.17 | 17.5 | 2.45 | 6.96
22 | Cc1cccc(NC(=O)c2sc3nc4c(cc3c2N)C(=O)CCC4)c1 | 0.49 | > 89.1 | 0.527 | > 41 | 0.425 | > 43.7 | 0.115 | > 57.4 | 1 | > 70 | – | – | 5.8 | > 100 | 0.157 | > 100 | 0.272 | > 39.4 | 0.124 | 1.68
23 | COc1ccc(OC)c(/C=C/c2nc(=S)n(-c3ccc(Cl)cc3)[nH]2)c1 | 3.11 | > 100 | 7.17 | > 100 | 6.48 | > 100 | 3.58 | > 100 | 5.02 | > 100 | 30 | > 100 | – | – | 4.44 | > 100 | 2.85 | > 100 | 4.07 | > 100
24 | COc1ccc2sc3c(NCCCN)nc4ccccc4c3c(=O)c2c1 | 1.72 | 3.21 | 1.63 | 3.11 | 1.7 | 3.46 | 1.82 | 3.37 | – | – | 1.75 | 3.39 | 1.84 | 3.84 | 1.7 | 3.48 | 1.38 | 2.72 | 1.63 | 3.49
25 | O=[N+]([O-])c1ccc(Cl)c2c([N+](=O)[O-])cccc12 | – | > 10 | – | > 10 | – | > 10 | – | > 10 | – | > 10 | – | > 10 | – | – | – | > 10 | – | > 10 | – | –
26 | COc1ccc(OC)c(NCC(=O)n2nc(/C=C\c3ccc(O)c(OC)c3)cc2/C=C\c2ccc(O)c(OC)c2)c1 | 1.56 | 4.72 | 2.1 | 7.97 | 3.03 | 13 | 1.66 | 4.91 | – | – | 3 | 15.6 | 3.16 | 16.1 | 1.61 | 10.4 | 2.2 | 9.75 | 1.31 | 3.28
27 | Cc1c(C(=N)C(C#N)C#N)c(=N)oc2c1ccc1ccccc12 | 13 | 32.3 | 29.1 | > 100 | 21.7 | 77.6 | 13.3 | 29.8 | 11.9 | 38.2 | 4.45 | > 100 | – | – | 5.34 | > 100 | 13.6 | 48.9 | 8 | 25.7
28 | CCCCCCCCCCCC[N+]1(CCCCCCCCCCCC)CCCC(C)C1 (stereo not given) | 0.244 | 1.27 | 0.412 | 1.66 | – | – | – | – | 0.348 | 1.39 | 0.269 | 1.65 | – | – | 0.257 | 1.2 | 0.349 | 1.63 | – | –
29 | Cn1c([N+](=O)[O-])cnc1C=C1C(=O)c2ccccc2C1=O | 2.04 | 5.75 | 5.18 | 28.3 | 10.7 | 29.5 | 8.67 | 21.9 | 2.84 | 11.1 | – | – | 13.1 | 47.4 | 3.44 | 16.2 | 2.99 | 39.6 | 1.89 | 4.37
30 | O=C(Nc1ccc(N=C=S)cc1Cl)c1cc(Br)cc(Br)c1O | – | 35.2 | – | 75.2 | – | 84.4 | – | 46.5 | – | – | – | – | – | 41.5 | – | > 100 | – | > 100 | – | > 100
